Results: patent US20110165611A1, “DUAL MODALITY DETECTION OF APOPTOSIS” (priority 2008, published 2011)
“Also recorded” adds a separate entry of the source.

Legend:
[1] = tested on: DLD1 cells; assay: Cellular uptake and efflux of 99mTc-chelate 4, radiotracer analysis; format: cell-based, human; settings: for Efflux / retention in DLD1 cells after wash: 2 h loading, fresh medium 60-180 min
Method: The medium was replaced with 2 mL of medium containing radiotracers 99 mTc-chelate 4 [Ac-DEVD-R110-D-SAAC-99mTc(CO)3] (˜40 μCi/mL) or its fragment R110-D-SAAC-99 mTc(CO)3 (˜40 μCi/mL). The cells were subsequently incubated for 60 and 120 min before the monolayers were scraped, transferred into 5-mL tubes. The tubes were briefly vortexed and 100 μL DLD1 cell suspension were transferred into a microcentrifuge tube containing 500 μL of a 75:25 mixture of silicon oil (density 1.05, Aldrich) and mineral oil (density 0.872, Acros). The mixture was centrifuged at 14,000 rpm for 5 min. After freezing the tubes with liquid nitrogen, the bottom tips containing the cell pellet were cut off. The cell pellets and the supernatants were counted with a γ-counter (Perkin-Elmer). The protein content in 100 μl cell suspension was quantified in a separate experiment using the Bio-Rad protein assay kit according to the manufacturer's protocol. For efflux study, cells were incubated with each radiotracer for 2 hrs, then the medium was removed and the cells washed with medium twice. The cells were incubated with 2 mL of fresh medium for additional 60 min, 120 min, and 180 min. The radioactivity in the cell pellets and media were counted as described before. Activity ratios of the cell pellet to medium ([cpm/g protein in pellet]/[cpm/g medium]) were calculated and plotted against time. The experiments were performed in pentaplicate.

[2] = tested on: liver; assay: Radio-HPLC analysis of liver extracts from mice injected 99mTc-chelate 4; settings: mouse, in vivo
Method: Two hours after intravenous injection of 4 (1 mCi, 80 μg, 0.2 mL) into a mouse treated with […] and a mouse treated with PBS 2 h prior to the injection of the radiotracer, mice were killed and livers were removed and ground at 4° C. using a Dounce homogenizer (Polytron, […], Switzerland) in 5 mL of acetonitrile/methanol (3:1, v/v). After sequential high-speed centrifugation (100,000 g for 20 min) to remove cellular debris and insoluble proteins, the supernatants were concentrated and injected into the radio-HPLC system (condition: solvent A, 0.01 M NH4OAc in water; solvent B, acetonitrile; gradient: 0-80% B in A over 40 min, flow rate 1.0 mL/min, C18 4.6×250 mm, 5-μm column).

[3] = tested on: DLD1 cells; assay: Fluorescence microscopy of viable and TRAIL-treated apoptotic DLD1 cells; format: cell-based, human; settings: for Effect on apoptosis of DLD1 cells (annexin V staining): annexin V-Alexa Fluor 594 staining
Method: Fluorescence Microscopy Human epithelial cells from colorectal adenocarcinoma (DLD1) were seeded (1×10^4/well) in a 96-well plate 1 day before experiments. Apoptosis was induced by treating cells with TRAIL (100 μL, 250 ng/mL) for 2 h at 37° C. Both apoptotic and viable cells were incubated with 100 μL of 2 or 3 in (final concentration, 50 μM) for 2 h at 37° C. The cells were washed and stained with Annexin V-Alexa Fluor 594. After washing with PBS, the cells were transferred into Lab-Tek II chambered cover glass and visualized under Olympus Fluoview FV1000 confocal laser scanning microscope (FV1-ASW, Olympus, Melville, N.Y.) equipped with fluorescein isothiocyanate (wavelength: 495/519 nm) and Texas red filters (wavelength: 589/615 nm). In separate wells, TRAIL was added in the presence of 50 μM of Ac-DEVD-CHO to inhibit caspase 3 activity.
Fluorescence microscopy Human epithelial cells from colorectal adenocarcinoma (DLD1) were obtained from American Type Cell Culture (Manassas, Va.). Cells were seeded (1×10^4/well) in a 96-well plate (Corning, Lowell, Mass.) supplemented with RPMI-1640 medium plus 10% fetal bovine serum (FBS) 1 day before experiments. Apoptosis was induced by treating cells with TRAIL (100 μL, 250 ng/mL) for 2 h at 37° C. The treated apoptotic cells were collected in conical tubes, while the untreated viable cells were trypsinized. The cells were centrifuged at 3000 rpm for 5 mM. The pellets were washed with RPMI 1640 without phenol red. Both apoptotic and viable cells were incubated with 100 μL, of 2 or 3 in RPMI 1640 without phenol red (final concentration, 50 μM) for 2 h at 37° C. The cells were washed and resuspended in annexin-binding buffer (10 mM HEPES, 140 mM NaCl, and 2.5 mM CaCl2 [pH 7.4]). Five microliters of Alexa Fluor 594-annexin V conjugate was added into each 100 μl of cell suspension, and the cells were incubated for 15 min at room temperature. […]

[4] = molecular target: T1, Human caspase 3 (Homo sapiens, UniProt P42574); assay: Cleavage by caspase 3 (fluorescence emission and LC-MS); format: biochemical
T1 construct: purchased Sigma-Aldrich
T1 sequence (P42574 29-175 limits assumed): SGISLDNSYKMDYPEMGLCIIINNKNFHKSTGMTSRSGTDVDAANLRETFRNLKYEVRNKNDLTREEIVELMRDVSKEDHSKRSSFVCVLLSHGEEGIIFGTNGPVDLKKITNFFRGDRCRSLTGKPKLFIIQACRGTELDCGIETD
T1 sequence (P42574 176-277 limits assumed): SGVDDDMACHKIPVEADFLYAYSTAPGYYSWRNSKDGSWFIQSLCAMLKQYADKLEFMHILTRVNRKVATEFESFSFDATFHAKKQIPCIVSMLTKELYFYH
Method: Cleavage by caspase 3 Human caspase 3 (Sigma-Aldrich) (5 μg) was reconstituted with 50 μL of deionized water (100 μg/mL) and stored in aliquots at −70° C. Before its use, an aliquot of reconstituted caspase 3 was thawed and diluted 200-fold in 1× assay buffer to a final concentration of 0.5 μg/mL. Five microliters of diluted caspase 3 was then added into a solution of 2 (22 μM) in 3 mL 1× assay buffer (20 mM HEPES [pH 7.4], with 2 mM ethylenediaminetetraacetic acid, 0.1% 3-[(3-cholamidopropyl)dimethylammonio]-1-propanesulfonate, and 5 mM dithiothreitol). The reaction mixture was incubated in cuvet in dark at room temperature and the emission spectra were recorded at intervals of 0, 10, 20, 30 and 60 min on a Fluorolog 3 fluorometer (HORIBA, Edison, N.J.) with an excitation wavelength (λex) of 496 nm.
To further confirm cleavage of 2 by caspase 3, 5 μL of caspase 3 (0.5 μg/mL) was mixed with 10 μL of 1 mM solution of 2 dissolved in 1× assay buffer. After 1 h at room temperature, the reaction mixture was injected into LC-MS system.

[5] = Stability of DEVD profluorophore 2 in PBS and serum-containing culture medium; format: physicochemical; settings: 10 μM in PBS, 1 μM in medium, room temperature, 8 h
Method: Stability of DEVD profluorophore 2 in PBS and serum-containing culture medium For the stability assay, the generation of fluorescence was recorded continuously at room temperature for 8 h for a solution of 2 (10 μM) or fluorescein diacetate (10 μM) in 3 mL of PBS using a Fluorolog-3 fluorometer (Jobin Yvon, Edison, N.J.) at λex=496 nm. The procedure was repeated for a solution of 2 (1 μM) or fluorescein diacetate (1 μM) in Dulbecco's modified Eagle medium supplemented with 10% (v/v) fetal bovine serum. Cleavage of amide bond linking R110 to DEVD or hydrolysis of fluorescein diacetate would result in increased fluorescence signal.

[6] = tested on: DLD1 cells; assay: Cellular uptake and efflux of DEVD peptides 2 and 3, fluorescence analysis; format: cell-based, human
Method: Cellular uptake and efflux of DEVD peptides 2 and 3—fluorescence analysis DLD1 cells were seeded (1×10^4/well) in a 96-well plate 1 day before experiments. The DLD1 cells were sequentially treated with 100 μL of the following agents at 37° C.: (A) 25 μM each DEVD conjugate for 2 h; (B) 25 μM each DEVD conjugate for 2 h followed by TRAIL (150 ng/L) for 2 h; (C) 25 μM each DEVD conjugate for 2 h, drug-free culture medium for 2 h, and TRAIL (150 ng/L) for 2 h; and (D) 25 μM each DEVD conjugate for 2 h, drug-free culture medium for 24 h, and TRAIL (150 ng/L) for 2 h. The cells were washed with PBS twice before each medium replacement. After treatment, the cells were lysed with 100 μL of lysis buffer (Sigma) for […] at room temperature. The fluorescence intensity of cleaved R110 was measured using a TECAN microplate reader (San Jose, Calif.). The measurement parameters were as follows: excitation wavelength, 485 nm; emission wavelength, 520 nm; excitation and emission bandwidth, both 12.0 nm; gain, 50; number of flashes, 10; and integration time, 30 μs. The measurements were performed 4 times each.
Uptake and release kinetics of DEVD peptides in normal and apoptotic cells. DLD-1 cells were seeded (1×10^4/well) in 96 well plate 1 days before experiment. […] The fluorescent intensity of cleaved R110 was measured using TECAN microplate reader (San Jose, Calif.). […]

[7] = Stability of 99mTc-chelate 4, ligand challenge with cysteine and histidine; format: physicochemical; settings: 0.01 M cysteine or histidine in PBS, 37° C., 1 and 5 h
Method: A large excess of competing donors cysteine and histidine was used as a means of evaluating the complex's tendency to undergo transchelation. […] The samples were incubated at 37° C. and analyzed by HPLC at 1- and 5-h intervals.

[8] = tested on: apoptotic liver; assay: Gamma imaging in murine liver apoptosis model (anti-Fas); format: in vivo, mouse; settings: 300 μCi i.v., imaging 120 min after injection
From the text: We used a murine liver apoptosis model to evaluate whether chelate 4 could be used to image apoptosis in vivo. F. G. Blankenberg, J. F. Tait, R. E. Davis, L. Naumovski, K. Ohtsuki, S. Kopiwoda, M. J. Abrams, M. Darkes, R. C. Robbins, H. T. Maecker, H. W. Strauss, Proc. Natl. Acad. Sciences USA 1998, 95, 6349-6354; F. G. Blankenberg, P. D. Katsikis, J. F. Tait, R. E. Davis, L. Naumovski, K. Ohtsuki, S. Kopiwoda, M. J. Abrams, H. W. Strauss, J. Nucl. Med. 1999, 40, 184-191. Male Balb/c mice (10-12 weeks old, weight 20-25 g) were injected intravenously with an anti-Fas monoclonal antibody (10 μg/mouse) to induce apoptosis in the liver. […] Radionuclide imaging was acquired 120 min after the injection of 4.
Gamma Imaging and Biodistribution For γ-imaging study, two male Balb/c mice (10-12 weeks old, weight 20-25 g) (Charles River, Wilmington, Mass.) were injected intravenously with a purified anti-Fas monoclonal antibody (10 μg/mouse) (Pharmingen, San Diego, Calif.). Two mice injected with PBS were used as a control group. […] The organs of interest were excised and weighed, and radioactivity was counted in a gamma counter. The stomach and intestines were emptied of food contents prior to radioactivity measurements. The percentage of injected dose per gram (% ID/g) was calculated by dividing the % ID/organ by the weight of the tissue.

[9] = tested on: activated caspase 3 in liver; assay: Fluorescence microscopic analysis of liver from mice injected 99mTc-chelate 4; format: in vivo, mouse; settings: anti-Fas-treated vs PBS-treated liver, 2 h after i.v. injection
Method: The tissue slices were fixed using 4% paraformaldehyde for 15 min at room temperature. After PBS washing, the samples were blocked with 10% goat serum at 37° C. for 30 min, followed by 1 μg/mL of rabbit anti-mouse-activated caspase 3 monoclonal antibody (R&D Systems, Minneapolis, Minn.) at 4° C. overnight. Texas red-conjugated goat anti-rabbit IgG (1:1000, Invitrogen, Eugene, Oreg.) was used as second antibody at room temperature for 1 h. Cell nuclei were counterstained with 3 μg/mL of Hoechst 33342 at room temperature for 5 min. The slices were mounted and visualized under a Zeiss Axio Observer.Z1 fluorescence microscope (Carl Zeiss MicroImaging GmbH, Göttingen, Germany).

## R110-D-SAAC-^99mTc(CO)3
[1]
  Permeability to plasma membrane compared with parent substrate: less permeable to plasma membrane
  Efflux / retention in DLD1 cells after wash: trapped in the cells
[2]
  Retention of degradation product in liver: retained in the apoptotic liver in its intact form

## Ac-DEVD-CHO
[3]; 50 μM Ac-DEVD-CHO with TRAIL
  Effect of caspase 3 inhibitor on fluorescent signal from 3: significantly reduced the fluorescent signal from 3
[3]
  Effect on apoptosis of DLD1 cells (annexin V staining): did not inhibit the apoptosis of DLD1 cells

## Ac-DEVD-R110-D-SAAC-Fmoc [Compound 2]
[4]; 22 μM, over 60 min, λex 496 nm
  Fluorescence change after introduction of caspase 3: large increase in fluorescence
[4]; 22 μM, λex 496 nm, room temperature
  Fluorescence emission without exposure to caspase 3: near-baseline emission
[4]; 1 h at room temperature
  Site of hydrolytic cleavage by caspase 3 (LC-MS): occurred selectively at the amide bond between DEVD and R110
[4]; fluorescence increase and LC-MS
  Degradation on incubation with caspase 3: completely degraded
[5]
  Stability in PBS and culture medium with 10% FBS (generation of fluorescence): stable in both PBS and culture medium supplemented with serum; also recorded: remarkable stability in both PBS and culture medium supplemented with serum
[6]; 25 μM 2 h, then drug-free medium, then TRAIL
  Uptake in viable tumor cells: reversibility (efflux in drug-free medium 2 or 24 h): reversible process
[6]; 25 μM 2 h followed by TRAIL (150 ng/mL) 2 h vs no TRAIL
  Increase of fluorescence intensity upon TRAIL treatment: 27 fold

## CC(=O)Oc1ccc2c(c1)Oc1cc(OC(C)=O)ccc1C21OC(=O)c2ccccc21 [fluorescein diacetate, reference compound]
[5]
  Stability in PBS and culture medium with 10% FBS (generation of fluorescence): relatively rapid hydrolysis in both solutions

## Ac-DEVD-R110-D-SAAC-^99mTc(CO)3 [^99mTc-chelate 4]
[7]
  Transchelation under cysteine/histidine challenge: No transchelation was observed
[1]; 1-2 h of incubation, compared with fragment
  Uptake in DLD1 cells (cell pellet to medium activity ratio): accumulated significantly more in the cells than its fragment did; also recorded: significantly higher uptake in DLD1 cells
[1]
  Efflux / retention in DLD1 cells after wash: washed out of the cells over time; also recorded: gradually washed out
[8]
  Liver uptake, anti-Fas-treated vs PBS-treated mice (radionuclide imaging): Significantly higher uptake
[9]
  Cleavage of fluorogenic probe in liver sections: shown only in the apoptotic liver but not in the normal liver

B1: TRAIL: tumor necrosis factor-related apoptosis-inducing ligand, recombinant human (protein, UniProt P50591 1-281, looked up)
Tumor necrosis factor ligand …: MAMMEVQGGPSLGQTCVLIVIFTVLLQSLCVAVTYVYFTNELKQMQDKYSKSGIACFLKEDDSYWDPNDEESMNSPCWQVKWQLRQLVRKMILRTSEETISTVQEKQQNISPLVRERGPQRVAAHITGTRGRSNTLSSPNSKNEKALGRKINSWESSRSGHSFLSNLHLRNGELVIHEKGFYYIYSQTYFRFQEEIKENTKNDKQMVQYIYKYTSYPDPILLMKSARNSCWSKDAEYGLYSIYQGGIFELKENDRIFVSVTNEHLIDMDHEASFFGAFLVG
[3]
  Effect on apoptosis of DLD1 cells (annexin V staining): induced significant apoptosis
